Test results published in patent US20260356879A1, “CELASTROL DERIVATIVES” (Celloram Inc., priority 2022, published 2026).

Tests used:
[1] = test system: NF-kB target proteins iNOS, COX2, NLRP3, and IL-1β; assay: LPS-induced NF-kB target protein expression in BMDCs (western blot); assay type: cell-based; details: BMDCs, 10, 25, 50 nM, LPS (500 ng/ml), FIG. 1C
Method: FIG. 1A depicts plots of relative NF-κB luciferase activity (RLU) for compound 22 and compound 1 (also referred to as “CLM-001”) assayed at 8-point concentrations (10 μM, 5 μM, […], 1.25 μM, 0.63 μM, 0.31 μM, 0.16 μM, […], and 0 μM). FIG. 1B depicts plots of the inhibitory concentrations (IC50) for compounds 22 (CLM-022) and 1 (CLM-001).
LPS-induced NF-kB target protein expression: Bone marrow-derived dendritic cells (BMDCs) were pre-treated with compound 22 or compound 1 at three concentrations (10 nM, 25 nM, 50 nM) for an hour and then treated overnight with LPS (500 ng/ml). The next day, the cells were subjected to western blotting for iNOS, COX2, NLRP3, and IL-1β.

NLRP3 inflammasome [2] = assay: NLRP3 inflammasome assay in BMDCs: ASC complex formation (western blot); assay type: cell-based
Method: FIG. 2A depicts western blot images showing the relative NLRP3 inflammasome activity of the compounds 22 (CLM-022) and 1 (CLM-001) by detecting the level of cellular ASC complex and the mature form of IL-1β (15 kDa) in a conditioned media of BMDCs treated with LPS (100 ng/ml) for 3 hours and then the compound at 50 nM, 100 nM, and 500 nM concentration for 30 min, followed by ATP or Nigericin. ASC monomer and β-Actin proteins were used as controls. FIG. 2B depict plots of results showing secreted IL-1β levels measured by ELISA using conditioned media of BMDC treated with the compound 22 or compound 1 at 63 nM, 125 nM, 250 nM, and 500 nM, under NLRP3 inflammasome activation induced either by LPS+ATP or LPS+Nigericin. FIG. 2C depict plots of results showing secreted TNF-α levels measured by ELISA using conditioned media of BMDC treated with the compound 22 or compound 1 at 63 nM, 125 nM, 250 nM, and 500 nM, under NLRP3 inflammasome activation induced either by LPS+ATP or LPS+Nigericin. […]
1. […] After 30 minutes Nigericin (10 μM) or ATP (5 mM) was added (Signal 2) and the level of NLRP3-dependent inflammasome activity was determined by western blotting the treated cells with ASC complex (>48 kDa). […]

NLRP3 inflammasome [3] = assay: ASC complex formation in THP-1 cells (western blot), LPS+Nigericin; assay type: cell-based, human; details: THP-1, 50 nM and 100 nM, FIG. 3A
Method: This example illustrates a study of the anti-inflammatory potential of an exemplary celastrol derivative of the present disclosure (compound 22) using an NLRP3 inflammasome assay in THP-1, a human monocytic cell line, activated with LPS+Nigericin in the presence of compound 22 or the known NLRP3 inhibitor compound, MCC950 (CAS 256373-96-3), as a benchmark molecule.
Human THP-1 cells were treated with LPS+Nigericin as shown previously (FIG. 2) where increasing dose of compound 1, compound 22, or MCC950 were added as indicated.

NLRP3 = target: T1, NLRP3 (Homo sapiens, UniProt Q96P20); assay: DARTS assay: protection of NLRP3 from Pronase degradation in THP-1 lysates; assay type: binding; details: 10 μM, Pronase (50-500 ng/μg of protein), FIG. 6A, 6B
T1 construct: DARTS with Pronase, NACHT and PYD antibodies
From the text: The NLRP3 inflammasome is composed of a multi-protein complex and the exact molecular mode of NLRP3 activation remains unclear. Currently, there are no NLRP3 inflammasome inhibitors in the clinic, and it is important to identify the mechanism of action and molecular target of potential small molecules that interact with NLRP3. This example illustrates a study of the ability of CLM-022 to protect the NLRP3 molecule as determined using a drug affinity responsive target stability (DARTS) assay. DARTS assay is a robust method to identify small molecule target protein. In case of a drug-target interaction, the small molecule protects target protein from degradation by proteinase (Pronase) whereas free-proteins may be degraded very efficiently in the given condition.
The DARTS assay was performed using THP-1 lysates pretreated with LPS and Nigericin to induce activation of NLRP3 inflammasome. THP-1 cells (1×10^5/mL) were treated with LPS (100 ng/ml) for 3 hours, followed by 10 μM Nigericin for an additional 30 minutes. Pronase (50-500 ng/μg of protein) was added to the lysate with CLM-022 (10 μM) or MCC950 (10 μM) for the indicated time (10-15 min) at room temperature. The protein components of NLRP3 inflammasome were visualized using antibody recognizing NLRP3-Natch domain (FIG. 6A), NLRP-PYD domain (FIG. 6B), or NEK7 protein (FIG. 6C). […]

T1 sequence (Q96P20 whole entry): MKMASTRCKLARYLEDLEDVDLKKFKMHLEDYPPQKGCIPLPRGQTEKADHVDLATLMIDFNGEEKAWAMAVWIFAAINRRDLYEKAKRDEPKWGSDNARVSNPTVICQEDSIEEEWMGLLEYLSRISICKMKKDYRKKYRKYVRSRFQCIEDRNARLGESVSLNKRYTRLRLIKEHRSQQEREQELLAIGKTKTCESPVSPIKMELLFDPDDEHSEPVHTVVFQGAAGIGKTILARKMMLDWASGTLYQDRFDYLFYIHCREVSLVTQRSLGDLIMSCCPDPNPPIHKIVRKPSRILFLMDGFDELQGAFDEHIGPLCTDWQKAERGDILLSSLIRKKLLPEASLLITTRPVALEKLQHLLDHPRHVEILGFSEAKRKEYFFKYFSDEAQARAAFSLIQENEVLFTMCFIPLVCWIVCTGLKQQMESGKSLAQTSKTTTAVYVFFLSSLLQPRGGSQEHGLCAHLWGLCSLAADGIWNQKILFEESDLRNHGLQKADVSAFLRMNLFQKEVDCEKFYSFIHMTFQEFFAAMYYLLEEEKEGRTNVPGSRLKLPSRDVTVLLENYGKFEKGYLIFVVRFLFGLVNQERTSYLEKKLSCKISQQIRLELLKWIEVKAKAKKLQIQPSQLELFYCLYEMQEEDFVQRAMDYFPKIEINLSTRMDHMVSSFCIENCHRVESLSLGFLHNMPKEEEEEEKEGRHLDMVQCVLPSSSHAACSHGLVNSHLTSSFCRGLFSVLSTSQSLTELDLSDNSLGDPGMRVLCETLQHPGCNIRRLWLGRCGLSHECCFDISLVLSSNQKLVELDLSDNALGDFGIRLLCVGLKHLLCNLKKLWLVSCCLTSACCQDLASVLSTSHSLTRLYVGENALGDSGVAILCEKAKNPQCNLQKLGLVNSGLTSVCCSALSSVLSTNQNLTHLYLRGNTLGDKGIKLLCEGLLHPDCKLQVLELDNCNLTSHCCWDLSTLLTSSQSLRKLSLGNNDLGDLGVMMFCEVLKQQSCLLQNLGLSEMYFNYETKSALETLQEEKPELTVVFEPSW

CC1=C(O)C(=O)C=C2C1=CC=C1[C@@]2(C)CC[C@@]2(C)[C@@H]3C[C@](C)(N(C)C(=O)C(=O)N(C)C)CC[C@]3(C)CC[C@]12C [Compound 22, N′-[(2R,4aS,6aR,6aS,14aS,14bR)-10-hydroxy-2,4a,6a,6a,9,14a-hexamethyl-11-oxo-1,3,4,5,6,13,14,14b-octahydropicen-2-yl]-N,N,N′-trimethyl-oxamide]
expression of LPS-induced NF-kB target proteins iNOS, COX2, NLRP3, and IL-1β [1]: markedly inhibited expression of the LPS-induced NF-kB target proteins iNOS, COX2, NLRP3, and IL-1β in a dose-dependent fashion
ASC complex formation (NLRP3 inflammasome [2]; BMDCs, 50, 100, 500 nM, LPS then ATP or Nigericin, FIG. 2A): suppressed ASC complex formation more strongly than compound 1
NLRP3 inflammasome activity (NLRP3 inflammasome [2]; BMDCs, compared with compound 1): robust inhibitory function on NLRP3 inflammasome activity that was better than that observed for the parental molecule celastrol (compound 1)
ASC complex formation (NLRP3 inflammasome [3]): strongly inhibited this ASC complex formation with an inhibitory capacity that was stronger than that observed for celastrol (compound 1) and MCC950
protection of NLRP3 protein from Pronase-induced degradation (NLRP3): markedly improved protection of NLRP3 protein, but not NEK7, from Pronase-induced degradation
protection of NLRP3 protein from Pronase-induced degradation (NLRP3; listed as CLM-022): markedly protected NLRP3 protein from degradation which was obviously more efficient than that of MCC950
